Measured values reported in patent US11873320B2 (REATA PHARMACEUTICALS HOLDINGS, LLC, priority 2013, dated 2024).
Like-named read-outs stand apart in the source and are kept apart here.

Assays:
Sprague Dawley rats = assay: 14-day rat toxicity study (tissue distribution, Nrf2 targets)
[1] = test system: LPS-induced pulmonary inflammation; assay: LPS-induced pulmonary inflammation in mice, first study (QD×3); format: in vivo, mouse
Experimental: Animals were sacrificed 20 hours after LPS administration. BALF was examined for pro-inflammatory cytokine expression.

[2] = test system: bleomycin-induced pulmonary fibrosis
[3] = metabolism in monkey liver microsomes; settings: 60-minute incubation, NADPH and UGT
C2C12 muscle cells = assay: glycolytic intermediates in C2C12 myotubes; format: cell-based, rodent
[4] = oral pharmacokinetics, statements pooled over mice, rats and monkeys; format: in vivo
[5] = test system: LPS-induced pulmonary inflammation
[6] = test system: RANKL-induced TRAP activity and formation of osteoclasts; assay: RANKL-induced osteoclastogenesis in RAW264.7; format: cell-based; settings: Mus musculus, Osteoclast; 2 h pretreatment, 50 ng/mL RANKL
From the text: (§1) Osteoclastogenesis is a multi-step differentiation process that results from the binding of RANKL to its receptor, RANK, on cells of hematopoietic origin.

MRP-1 = MRP-1 (Homo sapiens, UniProt P33527); assay: in vitro efflux by MRP-1; settings: not told
ovalbumin-induced asthma = ovalbumin-induced asthma in mice; format: in vivo, mouse
From the text: Mice were sensitized with an IP injection of ovalbumin and aluminum hydroxide on Day 0 and Day 14 and challenged intranasally with ovalbumin in saline on Days 14, 25, 26, and 27. […] An increase in the number of T cells and B cells was also observed in the vehicle-treated mice.

[7] = test system: TNFα-induced NF-κB activation; assay: TNFα-induced NF-κB luciferase reporter, A549/NF-κB-Luc cells; format: cell-based; settings: Homo sapiens
From the text: (§2) NF-κB is a transcription factor that plays a central role in the regulation of many immune and inflammatory responses.

phosphorylation of IκBα = assay: TNFα-induced phosphorylation of IκBα in HeLa cells (Western blot); format: cell-based, human; settings: 6 h pretreatment, TNFα 20 ng/mL 5 min
Experimental: Total and phosphorylated levels of IκBα were evaluated by Western blot.

Nrf2 target genes = assay: Nrf2 target gene expression in BEAS-2B bronchial epithelial cells; format: cell-based, human; settings: 18 hours
[8] = topical administration pharmacokinetics in rats; format: in vivo, rat; settings: 0.01 to 3% in sesame oil
From the text: The topical administration was formulated as a suspension in sesame oil.

CD rats = assay: neurobehavioral evaluation in rats (FOB); format: in vivo, rat
Experimental: One additional group of 10 animals/sex served as the control and received vehicle (sesame oil).
Observations for morbidity, mortality, injury, and availability of food and water were conducted twice daily for all animals. Observations for clinical signs were conducted prior to dosing on Day 1 and following each functional observational battery (FOB) evaluation. FOB evaluations were conducted pre-dose (Day −1) and at approximately 4 and 24 hours post-dose. Body weights were measured and recorded pre-dose on Day 1.

LPS-induced NO = assay: in vivo NO suppression after LPS, CD-1 mice; settings: mouse
[9] = test system: IFNγ-induced NO production; assay: IFNγ-induced NO production in RAW264.7 macrophages (Griess reagent); format: cell-based; settings: Mus musculus
Experimental: Inhibition of IFNγ-induced NO production by AIMs is Nrf2-dependent (Dinkova-Kostova, 2005). […] Nitrite (NO2^−) levels in the media were measured as a surrogate for nitric oxide using the Griess reagent assay. Cell viability was assessed using the WST-1 assay. […] 63170, 63171, 63179, and 63189 are compounds of the formulas: […]

[10] = test system: TNFα-induced NF-κB activation; assay: TNFα-induced NF-κB luciferase reporter, HeLa/NF-κB-Luc cells; format: cell-based; settings: Homo sapiens, 1 h pretreatment, TNFα 10 ng/mL 5 h
From the text: as §2

H6PD, PGD, TKT, ME1 mRNA = assay: expression of genes involved in NADPH synthesis, HCT-116 cells; format: cell-based; settings: 24 hours
NQO1 and HMOX1 protein = assay: Nrf2 target protein levels in BV2 cells; format: cell-based, mouse; settings: concentrations up to 125 nM
NADPH levels = assay: WST-1 absorbance as marker of NADPH in HCT-116 cells; format: cell-based; settings: 24 hours
NQO1 = NQO1 enzymatic activity in RAW264.7 cells; format: cell-based, mouse; settings: 24 hours
Experimental: Consistent with induction of Nrf2 target genes and corresponding protein products, treatment of RAW264.7 mouse macrophage cells for 24 hours increased NQO1 enzymatic activity in a dose-dependent manner, with increases evident at 7.8 nM (FIG. 6).

STAT3 phosphorylation = assay: IL-6-induced STAT3 phosphorylation in HeLa cells; format: cell-based, human; settings: 1 μM, 6 hours pretreatment
From the text: as §1

[11] = oral pharmacokinetics in monkeys; format: in vivo, monkey; settings: 3 mg/kg
Experimental: Following oral administration of a suspension formulation at doses of 10 to 100 mg/kg, maximal concentrations were observed within 1 to 2 hours in mice, and within 1 to 24 hours in rats and monkeys.

[12] = 10 mg/kg, four hours after final dose, Day 14

Sequence of MRP-1 (P33527 whole entry): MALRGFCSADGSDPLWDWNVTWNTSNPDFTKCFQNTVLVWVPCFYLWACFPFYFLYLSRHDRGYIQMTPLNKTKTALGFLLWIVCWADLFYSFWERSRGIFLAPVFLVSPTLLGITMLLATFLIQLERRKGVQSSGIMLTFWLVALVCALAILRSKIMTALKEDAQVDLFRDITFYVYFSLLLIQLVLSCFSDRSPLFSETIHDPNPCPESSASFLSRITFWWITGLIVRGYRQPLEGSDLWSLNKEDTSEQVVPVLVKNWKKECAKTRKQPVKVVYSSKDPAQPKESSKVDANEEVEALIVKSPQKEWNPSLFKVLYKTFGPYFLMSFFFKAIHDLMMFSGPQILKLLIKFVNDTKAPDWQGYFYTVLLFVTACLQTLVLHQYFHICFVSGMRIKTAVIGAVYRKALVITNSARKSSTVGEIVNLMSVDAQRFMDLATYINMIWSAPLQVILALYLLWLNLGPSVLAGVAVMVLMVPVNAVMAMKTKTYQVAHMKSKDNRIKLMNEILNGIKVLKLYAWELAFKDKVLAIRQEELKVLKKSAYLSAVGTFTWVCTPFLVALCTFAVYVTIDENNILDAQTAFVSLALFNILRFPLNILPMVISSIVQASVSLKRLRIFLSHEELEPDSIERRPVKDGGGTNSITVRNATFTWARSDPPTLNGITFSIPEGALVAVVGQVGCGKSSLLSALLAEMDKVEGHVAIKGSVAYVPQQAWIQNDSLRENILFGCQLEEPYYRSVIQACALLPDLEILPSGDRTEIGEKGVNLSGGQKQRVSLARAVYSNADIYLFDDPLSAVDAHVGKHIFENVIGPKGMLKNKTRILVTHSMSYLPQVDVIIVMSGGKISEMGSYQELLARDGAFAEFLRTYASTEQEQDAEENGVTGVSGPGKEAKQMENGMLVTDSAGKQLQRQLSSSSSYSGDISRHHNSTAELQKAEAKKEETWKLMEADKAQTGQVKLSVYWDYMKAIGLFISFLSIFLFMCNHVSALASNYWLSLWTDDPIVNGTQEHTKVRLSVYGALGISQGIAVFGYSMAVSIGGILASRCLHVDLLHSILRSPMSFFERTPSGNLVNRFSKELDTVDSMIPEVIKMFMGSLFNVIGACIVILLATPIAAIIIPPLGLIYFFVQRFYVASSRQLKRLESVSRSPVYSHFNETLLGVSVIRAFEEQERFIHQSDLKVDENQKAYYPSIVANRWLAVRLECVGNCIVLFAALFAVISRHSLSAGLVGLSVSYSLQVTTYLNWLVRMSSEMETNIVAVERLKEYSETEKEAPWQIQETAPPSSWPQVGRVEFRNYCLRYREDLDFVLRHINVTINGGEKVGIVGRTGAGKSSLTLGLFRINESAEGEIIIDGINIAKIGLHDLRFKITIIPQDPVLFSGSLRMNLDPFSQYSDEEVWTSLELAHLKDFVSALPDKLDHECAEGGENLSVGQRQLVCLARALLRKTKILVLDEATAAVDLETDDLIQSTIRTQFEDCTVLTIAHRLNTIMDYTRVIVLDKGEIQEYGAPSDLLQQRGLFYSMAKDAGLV

## CC1(C)CC[C@]2(NC(=O)C(C)(F)F)CC[C@]3(C)[C@H](C(=O)C=C4[C@@]5(C)C=C(C#N)C(=O)C(C)(C)[C@@H]5CC[C@]43C)[C@@H]2C1 [RTA 408, N-((4aS,6aR,6bS,8aR,12aS,14aR,14bS)-11-cyano-2,2,6a,6b,9,9,12a-heptamethyl-10,14-dioxo-1,2,3,4,4a,5,6,6a,6b,7,8,8a,9,10,12a,14,14a,14b-octadecahydropicen-4a-yl)-2,2-difluoropropanamide]
Sprague Dawley rats; [12]
  brain exposure over in vitro IC50 for NO inhibition: 240 fold
  lung exposure over in vitro IC50 for NO inhibition: 294 fold
Sprague Dawley rats; 100 mg/kg, tissues collected on Day 6
  toxicity finding in the high dose group: observed toxicities
Sprague Dawley rats; PO QD×14
  liver NQO1 and GST enzyme activities: induced dose-dependently
[1]; 100 and 150 mg/kg doses
  TNFα in BALF: significant reduction
[1]; all doses (30, 100, 150 mg/kg)
  IL-12p40 in BALF: significant reduction
[2]; 30 mg/kg
  tolerability finding that stopped dosing on day 14: excessive dehydration and diarrhea
[2]; 3 and 10 mg/kg, 28 days
  polymorphonuclear (PMN) cell infiltration into the lungs: significantly suppressed
[2]; rat, in vivo
  collagen deposition (trichrome staining): significant decrease in collagen deposition
[2]; rats exposed to bleomycin
  NQO1, Txnrd, Gsr, and Gst enzyme activity in lungs: significantly and dose-dependently increased
[3]
  parent molecule remaining: < 10%
C2C12 muscle cells; 250 nM or 500 nM, 18 hours, P<0.0001
  intracellular pyruvate levels: increased intracellular pyruvate levels
C2C12 muscle cells; 1 μM or 2 μM, 3 hours
  intracellular and extracellular lactate levels: significantly increased intracellular and extracellular lactate levels
[4]; 3 to 100 mg/kg, suspension
  dose dependence of systemic exposure: dose-proportional increases in systemic exposure
[4]; 100 to 800 mg/kg in monkeys, 500 to 2000 mg/kg in rats
  exposure at higher doses: saturation of absorption at doses above 100 mg/kg
[4]; in vivo
  systemic exposure by sex: generally similar in males and females
[4]; in vivo, po
  exposure after repeated daily oral administration vs single dose: ≤ 2 fold
[5]; 10 mg/kg
  TNFα in BALF: Significant reductions
[5]; 30 mg/kg
  IL-12p40, TNFα, and RANTES in BALF: significant reductions
[5]; 10 and 30 mg/kg
  lung NQO1 enzyme activity and total GSH: significant induction of NQO1 enzyme activity and increases in total GSH
[6]
  IC50: 5 to 10 nM
MRP-1
  MRP-1 substrate status: not a substrate of MRP-1
ovalbumin-induced asthma; 30 mg/kg
  B cells within the airways: significantly reduced the number and percentage of B cells
ovalbumin-induced asthma; 3 and 30 mg/kg
  macrophages detected in the airways: significantly reduced the number of macrophages
[7]
  IC50: 627 nM
Phosphorylation of IκBα
  TNFα-induced phosphorylation of IκBα: inhibited TNFα-induced phosphorylation of IκBα in a dose-dependent manner
Nrf2 target genes
  expression of Nrf2 target genes: dose-dependent increase of all Nrf2 target genes evaluated
[8]
  plasma concentrations after topical administration: lower plasma concentrations relative to similar oral dosing
CD rats; 30 mg/kg
  body weight gain approximately 24 hours after dosing: Slight decreases in body weight gain
CD rats; doses up to and including 30 mg/kg, single oral dose
  basic neurobehavioral endpoints: did not produce any adverse effects
LPS-induced NO
  NO in vivo: dose-dependently suppresses NO in vivo
[9]; 2 h pre-treatment, 20 ng/mL IFNγ 24 h, read-out: IC50, suppression of IFNγ-induced NO production
  IC50: 3.8 ± 1.2 nM
[9]; Table 15, read-out: NO IC50 (nM), RAW264.7
  IC50: 4 ± 1 nM
[10]
  IC50: 517 ± 83 nM
H6PD, PGD, TKT, ME1 mRNA
  mRNA levels of H6PD, PGD, TKT, ME1: dose-dependent increase in expression of genes involved in NADPH synthesis
NQO1 and HMOX1 protein
  NQO1 and HMOX1 protein levels: increased NQO1 and HMOX1 protein levels
NADPH levels
  WST-1 absorbance (NADPH marker): increased WST-1 absorbance in a dose-dependent manner
NQO1
  concentration at which increase in NQO1 enzymatic activity is evident: 7.8 nM
STAT3 phosphorylation
  IL-6-induced phosphorylation of STAT3: inhibited phosphorylation of STAT3 induced by IL-6
[11]
  dose-normalized systemic exposure of loose-filled capsule vs suspension formulation: somewhat lower
